Where two headings read alike, the source gives them in different places.

For this data set the following is noted: amide bond, 18-membered ring, HATU/HOBt/DIEA.

Under “from H-dPhe(4-Cl)-Ile-dOrn(Boc)-dOrn(Boc)-Trp(Boc)-Leu-OH”, `CC[C@H](C)[C@@H]1NC(=O)[C@@H](Cc2ccc(Cl)cc2)NC(=O)[C@H](CC(C)C)NC(=O)[C@H](Cc2cn(C(=O)OC(C)(C)C)c3ccccc23)NC(=O)[C@@H](CCCNC(=O)OC(C)(C)C)NC(=O)[C@@H](CCCNC(=O)OC(C)(C)C)NC1=O` [cyclo(D-Phe (4-Cl)-Ile-D-Orn(Boc)-D-Orn(Boc)-Trp(Boc)-Leu)] gave a ring closure, isolated yield of 55%. In turn, “cyclo(D-Phe(4-Cl)-D-Orn(Boc)-Asn(Trt)-Val-D-Leu-Leu)” showed a ring closure, isolated yield of 43%. `CC(C)C[C@@H]1NC(=O)[C@H](Cc2cn(C(=O)OC(C)(C)C)c3ccccc23)NC(=O)[C@@H](CCCNC(=O)OC(C)(C)C)NC(=O)[C@H](CC(=O)NC(c2ccccc2)(c2ccccc2)c2ccccc2)NC(=O)[C@H](C(C)C)NC(=O)[C@@H](C)NC1=O` [cyclo(Trp(Boc)-D-Orn(Boc)-Asn(Trt)-Val-D-Ala-Leu)]: the ring closure, isolated yield (from H-dAla-Val-Asn(Trt)-dOrn(Boc)-Trp(Boc)-Leu-OH) worked out at 64%. As for `CC(C)C[C@@H]1NC(=O)[C@H](Cc2cn(C(=O)OC(C)(C)C)c3ccccc23)NC(=O)[C@@H](CCCNC(=O)OC(C)(C)C)NC(=O)[C@H](C)NC(=O)[C@H](C(C)C)NC(=O)[C@@H](CC(C)C)NC1=O` [cyclo(Trp(Boc)-D-Orn(Boc)-Ala-Val-D-Leu-Leu)], the ring closure, isolated yield (from H-dLeu-Val-Ala-dOrn(Boc)-Trp(Boc)-Leu-OH) amounted to 56%. Where the note is “from H-dLeu-Val-Asn(Trt)-dOrn(Boc)-Ala-Leu-OH”, `CC(C)C[C@@H]1NC(=O)[C@H](C)NC(=O)[C@@H](CCCNC(=O)OC(C)(C)C)NC(=O)[C@H](CC(=O)NC(c2ccccc2)(c2ccccc2)c2ccccc2)NC(=O)[C@H](C(C)C)NC(=O)[C@@H](CC(C)C)NC1=O` [cyclo(Ala-D-Orn (Boc)-Asn(Trt)-Val-D-Leu-Leu)] returned a ring closure, isolated yield of 43%. On to `CC(C)C[C@@H]1NC(=O)[C@H](Cc2cn(C(=O)OC(C)(C)C)c3ccccc23)NC(=O)[C@@H](CCCNC(=O)OC(C)(C)C)NC(=O)[C@H](CC(=O)NC(c2ccccc2)(c2ccccc2)c2ccccc2)NC(=O)[C@H](C)NC(=O)[C@@H](CC(C)C)NC1=O` [cyclo(Trp(Boc)-D-Orn(Boc)-Asn(Trt)-Ala-D-Leu-Leu)], for which, under “from H-dLeu-Ala-Asn(Trt)-dOrn(Boc)-Trp(Boc)-Leu-OH”, the ring closure, isolated yield is 56%.

Consider `CC(C)C[C@@H]1NC(=O)[C@@H](CC(C)C)NC(=O)[C@H](C(C)C)NC(=O)[C@H](CC(=O)NC(c2ccccc2)(c2ccccc2)c2ccccc2)NC(=O)[C@@H](CCCNC(=O)OC(C)(C)C)NC(=O)[C@H](Cc2cn(C(=O)OC(C)(C)C)c3ccccc23)NC1=O` [cyclo(Trp (Boc)-D-Orn (Boc)-Asn(Trt)-Val-D-Leu-Leu)], for which the ring closure, isolated yield (from H-Trp(Boc)-dOrn(Boc)-Asn(Trt)-Val-dLeu-Leu-OH, DMF, 1.0 mM) came to 50%. `CC[C@H](C)[C@@H]1NC(=O)[C@@H](CC(C)C)NC(=O)[C@H](CC(C)C)NC(=O)[C@H](Cc2cn(C(=O)OC(C)(C)C)c3ccccc23)NC(=O)[C@@H](CCCNC(=O)OC(C)(C)C)NC(=O)[C@H](CC(=O)NC(c2ccccc2)(c2ccccc2)c2ccccc2)NC1=O` [cyclo (D-Leu-Ile-Asn(Trt)-D-Orn(Boc)-Trp(Boc)-Leu)] returned a ring closure, isolated yield (from H-dLeu-Ile-Asn(Trt)-dOrn(Boc)-Trp(Boc)-Leu-OH) of 52%. `CC(C)C[C@H]1NC(=O)[C@@H](Cc2ccc(Cl)cc2)NC(=O)[C@H](Cc2cn(C(=O)OC(C)(C)C)c3ccccc23)NC(=O)[C@@H](CCCNC(=O)OC(C)(C)C)NC(=O)[C@H](CC(=O)NC(c2ccccc2)(c2ccccc2)c2ccccc2)NC(=O)[C@H](C(C)C)NC1=O` [cyclo(Asn(Trt)-D-Orn(Boc)-Trp(Boc)-D-Phe(4-Cl)-D-Leu-Val)] registered a ring closure, isolated yield (from H-Asn(Trt)-dOrn(Boc)-Trp(Boc)-dPhe(4-Cl)-dLeu-Val-OH) of 54%. For the compound `CC[C@H](C)[C@@H]1NC(=O)[C@H](Cc2cn(C(=O)OC(C)(C)C)c3ccccc23)NC(=O)[C@@H](CCCNC(=O)OC(C)(C)C)NC(=O)[C@H](CC(=O)NC(c2ccccc2)(c2ccccc2)c2ccccc2)NC(=O)[C@H](C(C)C)NC(=O)[C@@H](CC(C)C)NC1=O` [cyclo(Asn(Trt)-D-Orn(Boc)-Trp(Boc)-Ile-D-Leu-Val)], under “from H-Asn(Trt)-dOrn(Boc)-Trp(Boc)-Ile-dLeu-Val-OH”, the ring closure, isolated yield stood at 47%. `CC(C)C[C@H]1NC(=O)[C@H](CC(C)C)N(C)C(=O)[C@H](Cc2cn(C(=O)OC(C)(C)C)c3ccccc23)NC(=O)[C@@H](CCCNC(=O)OC(C)(C)C)NC(=O)[C@H](CC(=O)NC(c2ccccc2)(c2ccccc2)c2ccccc2)NC(=O)[C@H](C(C)C)N(C)C1=O` [cyclo (Trp(Boc)-N-Me-Leu-D-Leu-N-Me-Val-Asn(Trt)-D-Orn(Boc))] came in with a ring closure, isolated yield (from H-Trp(Boc)-MeLeu-dLeu-MeVal-Asn(Trt)-dOrn(Boc)-OH) of 73%. For the compound `CC[C@H](C)[C@@H]1NC(=O)[C@H](CC(C)C)NC(=O)[C@H](Cc2cn(C(=O)OC(C)(C)C)c3ccccc23)NC(=O)[C@@H](CCCNC(=O)OC(C)(C)C)NC(=O)[C@H](CC(=O)NC(c2ccccc2)(c2ccccc2)c2ccccc2)NC(=O)[C@H](C(C)C)NC1=O` [cyclo(Asn(Trt)-D-Orn(Boc)-Trp(Boc)-Leu-Ile-Val)], the ring closure, isolated yield (from H-Asn(Trt)-dOrn(Boc)-Trp(Boc)-Leu-Ile-Val-OH) worked out at 47%. The compound `CC[C@H](C)[C@@H]1NC(=O)[C@H]([C@@H](C)CC)NC(=O)[C@@H](CC(C)C)NC(=O)[C@H](CC(C)C)NC(=O)[C@H](Cc2cn(C(=O)OC(C)(C)C)c3ccccc23)NC(=O)[C@@H](CCCNC(=O)OC(C)(C)C)NC1=O` [cyclo(D-Leu-Ile-Ile-D-Orn(Boc)-Trp(Boc)-Leu)] came in with a ring closure, isolated yield (from H-dLeu-Ile-Ile-dOrn(Boc)-Trp(Boc)-Leu-OH) of 54%. Consider `COc1ccc(C[C@@H]2NC(=O)[C@@H](CCCNC(=O)OC(C)(C)C)NC(=O)[C@H](CC(=O)NC(c3ccccc3)(c3ccccc3)c3ccccc3)NC(=O)[C@H](C(C)C)NC(=O)[C@@H](CC(C)C)NC(=O)[C@H](CC(C)C)NC2=O)cc1` [cyclo(D-Leu-Val-Asn(Trt)-D-Orn(Boc)-Phe(4-OMe)-Leu)], for which the ring closure, isolated yield (from H-dLeu-Val-Asn(Trt)-dOrn(Boc)-Phe(4-OMe)-Leu-OH) is 41%. Regarding `CC(C)C[C@@H]1NC(=O)[C@H](Cc2cn(C(=O)OC(C)(C)C)c3ccccc23)NC(=O)[C@@H](CCCNC(=O)OC(C)(C)C)NC(=O)[C@@H](CCCNC(=O)OC(C)(C)C)NC(=O)[C@H](C(C)C)NC(=O)[C@@H](CC(C)C)NC1=O` [cyclo(D-Leu-Val-D-Orn(Boc)-D-Orn(Boc)-Trp(Boc)-Leu)], the ring closure, isolated yield (from H-dLeu-Val-dOrn(Boc)-dOrn(Boc)-Trp(Boc)-Leu-OH) stood at 40%. Regarding `CC(C)C[C@@H]1NC(=O)[C@H](Cc2cn(C(=O)OC(C)(C)C)c3ccccc23)NC(=O)[C@@H](CCCNC(=O)OC(C)(C)C)NC(=O)[C@H](CC(=O)NC(c2ccccc2)(c2ccccc2)c2ccccc2)N(C)C(=O)[C@H](C(C)C)NC(=O)[C@@H](CC(C)C)N(C)C1=O` [cyclo(Trp(Boc)-Leu-N-Me-D-Leu-Val-N-Me-Asn(Trt)-D-Orn(Boc))], for the setting “from H-Trp(Boc)-Leu-dMeLeu-Val-MeAsn(Trt)-dOrn(Boc)-OH”, the ring closure, isolated yield is 60%.

Take `CC(C)C[C@H]1NC(=O)[C@H](CC(C)C)N(C)C(=O)[C@H](Cc2cn(C(=O)OC(C)(C)C)c3ccccc23)NC(=O)[C@@H](CCCNC(=O)OC(C)(C)C)NC(=O)[C@H](CC(=O)NC(c2ccccc2)(c2ccccc2)c2ccccc2)N(C)C(=O)[C@H](C(C)C)NC1=O` [cyclo(Val-N-Me-Asn(Trt)-D-Orn(Boc)-Trp(Boc)-N-Me-Leu-D-Leu)]: where the note is “from H-Val-MeAsn(Trt)-dOrn(Boc)-Trp(Boc)-MeLeu-dLeu-OH”, the ring closure, isolated yield was 80%.

`CC(C)C[C@@H]1NC(=O)[C@H](Cc2cn(C(=O)OC(C)(C)C)c3ccccc23)NC(=O)[C@@H](CCCNC(=O)OC(C)(C)C)NC(=O)[C@H](CC(=O)NC(c2ccccc2)(c2ccccc2)c2ccccc2)NC(=O)[C@H](C(C)C)N(C)C(=O)[C@@H](CC(C)C)NC1=O` [cyclo(D-Leu-N-Me-Val-Asn(Trt)-D-Orn(Boc)-Trp(Boc)-Leu)] displayed a ring closure, isolated yield (from H-dLeu-MeVal-Asn(Trt)-dOrn(Boc)-Trp(Boc)-Leu-OH) of 60%.

As for `CC[C@H](C)[C@@H]1NC(=O)[C@@H](CC(C)C)NC(=O)[C@H](CC(C)C)NC(=O)[C@H](Cc2cn(C(=O)OC(C)(C)C)c3ccccc23)NC(=O)[C@@H](CCCNC(=O)OC(C)(C)C)NC(=O)[C@H](COC(C)(C)C)NC1=O` [cyclo(Trp(Boc)-Leu-D-Leu-Ile-Ser(tBu)-D-Orn(Boc))], the ring closure, isolated yield (from H-Trp(Boc)-Leu-dLeu-Ile-Ser(tBu)-dOrn(Boc)-OH) was 68%.

On to `CC(C)C[C@@H]1NC(=O)[C@H](Cc2cn(C(=O)OC(C)(C)C)c3ccccc23)NC(=O)[C@@H](CCCNC(=O)OC(C)(C)C)NC(=O)[C@H](CC(=O)NC(c2ccccc2)(c2ccccc2)c2ccccc2)NC(=O)[C@H](C(C)C)NC(=O)[C@@H](Cc2ccc(Cl)cc2)NC1=O` [cyclo(D-Phe(4-Cl)-Val-Asn(Trt)-D-Orn(Boc)-Trp(Boc)-Leu)], for which, where the note is “from H-dPhe(4-Cl)-Val-Asn(Trt)-dOrn(Boc)-Trp(Boc)-Leu-OH”, the ring closure, isolated yield turned out to be 53%. Where the note is “from H-dLeu-Val-Asn(Trt)-dOrn(Boc)-Trp(Boc)-Ala-OH”, `CC(C)C[C@H]1NC(=O)[C@H](C)NC(=O)[C@H](Cc2cn(C(=O)OC(C)(C)C)c3ccccc23)NC(=O)[C@@H](CCCNC(=O)OC(C)(C)C)NC(=O)[C@H](CC(=O)NC(c2ccccc2)(c2ccccc2)c2ccccc2)NC(=O)[C@H](C(C)C)NC1=O` [cyclo(Trp (Boc)-D-Orn(Boc)-Asn(Trt)-Val-D-Leu-Ala)] registered a ring closure, isolated yield of 45%.

For the origin of these results see article PMC5397059, “Design, synthesis and structure-activity relationship study of wollamide B; a new potential anti TB agent” (PLoS ONE, 2017).
